Results on one molecule are retold here after US20050069587A1, “Novel drug compositions and dosage forms of topiramate” (priority 2003, published 2005).

Structures are written as SMILES. ≈ marks a conversion by molar mass, not a printed value. Read-outs that look alike come from different tables or passages of the source.

The nature of data set [1]: solubility of topiramate in de-ionized water and aqueous surfactant solutions. The class given is physicochemical. To be noted: for solubility: water, thermodynamic from solid. The protocol:
As defined herein, the solubility of a pharmaceutical agent is determined by adding the pharmaceutical agent to stirred or agitated de-ionized water maintained in a constant temperature bath at a temperature of 37° C. until no more pharmaceutical agent dissolves. The resulting solution saturated with the pharmaceutical agent is then filtered, typically under pressure through a 0.8-micron Millipore filter, and the concentration of the pharmaceutical agent in the solution is measured by any appropriate analytical method including gravimetric, ultraviolet spectrophometry, chromatography, and the like. The solubility of the pharmaceutical agent is measured at equilibrium.
A drug composition of the present invention was prepared as follows. Aqueous solutions of five surfactants were prepared. The selected surfactants were four grades of ethylene oxide/propylene oxide/ethylene oxide (LUTROL grades F127, F87, F 108, and F68) and PEG-40 stearate (MYRJ 52). Solutions were made at concentrations of 1, 5, and 15 weight percent. The aqueous surfactant blends solutions were chilled as necessary to promote complete dissolution of the surfactant prior to drug solubility studies.
The aqueous surfactant solutions were equilibrated to constant temperature in a 37° C. water bath. Then, neat topiramate drug was added slowly with stirring in approximately 10 mg increments to the surfactant solutions until no more drug dissolved. A control sample of drug dissolved in de-ionized water without surfactant was included for comparison purposes. The resulting saturated solutions of drug were filtered through 0.8 micron filters and analyzed for drug concentration by refractive index chromatography. The resulting solubility values were plotted as a function of both surfactant concentration and the hydrophilic-lipophilic balance value of each surfactant. FIG. 6 was constructed from the solubility values obtained and HLB data for each surfactant utilized.

For data set [2] the following is noted: room temperature; cited from earlier work.
The conditions of data set [3]: cited from earlier work.

The term solubility denotes how much of the substance goes into solution per volume. Turning to `CC1(C)O[C@@H]2[C@@H](CO[C@@]3(COS(N)(=O)=O)OC(C)(C)O[C@@H]23)O1` [topiramate, 2,3:4,5-bis-O-(1-methylethylidene)-β-D-fructopyranose sulfamate], the “drug solubility in the presence of each surfactant compared to the control” value in data set [1] (LUTROL F127, F87, F108, F68, MYRJ 52 at 1, 5, 15 weight percent, 37° C.) is “higher”. Besides, the solubility in data set [1] (de-ionized water without surfactant, 37° C., read-out: solubility in de-ionized water without surfactant (control)) was 13 mg/mL (≈ 38.3 mM); in data set [1] (de-ionized water, 37 °C, read-out: solubility in de-ionized water) it was about 12 mg/mL (≈ 35.4 mM); in data set [1] (neat drug, stated range, read-out: solubility of neat topiramate) it was 9.8 to 13 mg/mL (≈ 28.9 to 38.3 mM). For the same molecule, the “solubility of topiramate in water” value in data set [2] is “about 9.8 mg/ml”. Also, the “mean elimination half life” value in data set [3] (in vivo) was “about 21 hours”. Further, in data set [3] (oral administration of an immediate release dosage form), the “time to peak plasma drug concentrations” value was “approximately 2 hours”.
